In patent US11219663B2, “Composition containing cyclic dipeptide and sweetening agent” (SUNTORY HOLDINGS LIMITED, priority 2015, dated 2022):
Where a SMILES comes first, the peptide text is derived from it.

System: NCI-H716 cells
Experiment: Active GLP-1 secretion amount of NCI-H716 cells cultured for one hour with the sample (ELISA)
Assay type: cell-based, Human
Settings: for Amount of active GLP-1, relative value (control regarded as 100), average value / Amount of Active GLP-1 (relative amount to control as 100), average value: 1 h
Excerpt: As cyclic dipeptides: cyclo(glycyl-tyrosine) [Cyclo(Gly-Tyr)] (CGY) and cyclo(leucyl-phenylalanine) [Cyclo(Leu-Phe)] (CLF), and chemical synthesized preparations were used. Poly-L-Lysine 96-well plates were obtained from Becton Dickinson (BD). PBS (+), an antibiotic substance, Dulbecco's Modified Eagle's Medium (DMEM) and glucose used herein were obtained from Nacalai Tesque Inc.; sucralose, acesulfame potassium and aspartame from Wako Pure Chemical Industries Ltd.; active GLP-1 ELISA kit from Merck Millipore, Fetal bovine serum (FBS) from Sigma; and Sitagliptin phosphate from SantaCruz Biotechnology. Human intestinal cell strain, NCI-H716 cells used herein were provided by ATCC.
NCI-H716 cells, which were suspended in DMEM culture medium (containing 10% FBS, 2 mM glutamine, 1% antibiotic substance), were seeded in Poly-L-Lysine 96-well plates in an amount of 100 μL for each so as to contain 0.5×10^5 cells/well and cultured in a CO2 incubator (manufactured by ESPEC CORP.) for 48 hours.
Sweetening agent solutions were prepared each by adding a sweetening agent to PBS (+). In the case of glucose, a concentration was set at 3%, sucralose at 0.6%, acesulfame potassium at 0.3%, and aspartame at 0.3%. A cyclic dipeptide was dissolved in DMSO and then added to each of sweetening agent solutions so as to obtain final concentrations shown in Table 1 and Table 2. Note that, all cell addition solutions were prepared such that DMSO (0.1%) and a 10 μM Sitagliptin phosphate were contained.
After the cells were washed once with PBS (+), a reaction solution was added to the cells. One hour later, the solution added was recovered. Thereafter, the amount of active GLP-1 in the solution recovered was measured by using the ELISA kit. Analysis was carried out using relative values to the amount of active GLP-1 (regarded as 100) in a (sample) group to which neither sweetening agent nor cyclic dipeptide were added.
NCI-H716 cells, which were suspended in DMEM culture medium (containing 10% FBS, 2 mM glutamine, 1% antibiotic substance) were seeded in Poly-L-Lysine 96-well plates in an amount of 100 μL for each so as to contain 0.5×10^5 cells/well and cultured in an CO2 incubator (manufactured by ESPEC CORP.) for 48 hours. After the cells were washed with PBS (+), a PBS (+) solution already containing 10 μM Sitagliptin phosphate was controlled such that the final concentration of stevioside or RebA was 0.01%, and the final concentration of Cyclo(Leu-Phe) was 0.02 μg/mL or 2 μg/mL. The PBS (+) solution (100 μL) was individually added to the NCI-H716 cells. One hour later, the solution added was recovered and the amount of active GLP-1 in the solution was measured by the ELISA kit. Analysis was carried out based on relative values to the amount of active GLP-1 (regarded as 100) in a (sample) group to which neither a steviol glycoside not Cyclo(Leu-Phe) were added
The experiment was carried out in accordance with Example 2. A PBS (+) solution already containing 10 μM Sitagliptin phosphate was controlled such that the final concentration of RebD was 0.01%, and the final concentration of Cyclo(Gly-Tyr) was 0.01 μg/mL or 1 μg/mL. The PBS (+) solution (100 μL) was individually added to the NCI-H716 cells.
NCI-H716 cells, which were suspended in DMEM culture medium (containing 10% FBS, 2 mM glutamine, 1% antibiotic substance), were seeded in Poly-L-Lysine 96-well plates in an amount of 100 μL for each so as to add 0.5×10^5 cells/well and cultured in an CO2 incubator (manufactured by ESPEC CORP.) for 48 hours. After the cells were washed with PBS (+), a PBS (+) solution already containing 10 μM Sitagliptin phosphate was controlled such that the final concentration of stevioside, RebA or RebB was 0.001, 0.01 or 0.1%. The PBS (+) solution (100 μL) controlled such that the final concentration of RebC or RebD was 0.001 or 0.01% was added to the cells.

[1] = Example 4, steviol glycoside alone, 0.001 to 0.1% (RebC, RebD 0.001 or 0.01%)
[2] = Table 5, final concentration 0.001%
[3] = Table 5, final concentration 0.01%
[4] = Table 3, steviol glycoside 0.01% alone
[5] = Table 4, steviol glycoside 0.01% alone
[6] = Table 5, final concentration 0.1%
[7] = steviol glycoside alone at a concentration of 0.01%

Compound	GLP-1 secretion-accelerating action (in words) [1]	Amount of Active GLP-1 (relative amount to control as 100), average value [2]	Amount of Active GLP-1 (relative amount to control as 100), average value [3]	Amount of Active GLP-1 (relative amount to control as 100), average value [6]	GLP-1 secretion-accelerating action (in words) [7]	also measured
OC[C@H]1O[C@H](O[C@]2(CCl)O[C@H](CCl)[C@@H](O)[C@@H]2O)[C@H](O)[C@@H](O)[C@H]1Cl [Sucralose, sucralose]	–	–	–	–	–	Amount of active GLP-1, relative value (control regarded as 100), average value (Table 1, sucralose 0.6% alone): 206; Amount of active GLP-1, relative value (control regarded as 100), average value (Table 2, sucralose 0.6% alone): 233
rebaudioside C [RebC]	GLP-1 secretion-accelerating action was not observed	52.8	55.0	–	–	–
C=C1C[C@@]23CC[C@H]4[C@@](C)(CCC[C@@]4(C)C(=O)O[C@@H]4O[C@H](CO)[C@@H](O)[C@H](O)[C@H]4O)[C@@H]2CC[C@]1(O[C@@H]1O[C@H](CO)[C@@H](O)[C@H](O)[C@H]1O[C@@H]1O[C@H](CO)[C@@H](O)[C@H](O)[C@H]1O)C3 [Stevioside, stevioside]	GLP-1 secretion-accelerating action can be obtained	104.9	91.3	160.9	not accelerated	Amount of Active GLP-1 (relative amount to control as 100), average value [4]: 62.7; Amount of Active GLP-1 (relative amount to control as 100), average value [5]: 62.7
C=C1C[C@@]23CC[C@H]4[C@@](C)(CCC[C@@]4(C)C(=O)O[C@@H]4O[C@H](CO)[C@@H](O)[C@H](O)[C@H]4O[C@@H]4O[C@H](CO)[C@@H](O)[C@H](O)[C@H]4O)[C@@H]2CC[C@]1(O[C@@H]1O[C@H](CO)[C@@H](O)[C@H](O[C@@H]2O[C@H](CO)[C@@H](O)[C@H](O)[C@H]2O)[C@H]1O[C@@H]1O[C@H](CO)[C@@H](O)[C@H](O)[C@H]1O)C3 [RebD, rebaudioside D]	GLP-1 secretion-accelerating action can be obtained	63.1	170.0	–	not accelerated	–
CC1=CC(=O)NS(=O)(=O)O1 [Acesulfame K, acesulfame potassium]	–	–	–	–	–	Amount of active GLP-1, relative value (control regarded as 100), average value (Table 1, acesulfame K 0.3% alone): 125; Amount of active GLP-1, relative value (control regarded as 100), average value (Table 2, acesulfame K 0.3% alone): 145
cyclo(leucyl-phenylalanine) [Cyclo(Leu-Phe)]	–	–	–	–	–	Amount of Active GLP-1 (relative amount to control as 100), average value (Table 3, Cyclo(Leu-Phe) 0.02 μg/mL alone): 65.1; Amount of Active GLP-1 (relative amount to control as 100), average value (Table 3, Cyclo(Leu-Phe) 2 μg/mL alone): 59.9; Amount of Active GLP-1 (relative amount to control as 100), average value (Table 4, head prints Cyclo(Leu-Phe) 1 μg/mL alone): 59.9
COC(=O)[C@H](Cc1ccccc1)NC(=O)[C@@H](N)CC(=O)O [Aspartame, aspartame] (H-Asp-Phe-OMe)	–	–	–	–	–	Amount of active GLP-1, relative value (control regarded as 100), average value (Table 1, aspartame 0.3% alone): 112; Amount of active GLP-1, relative value (control regarded as 100), average value (Table 2, aspartame 0.3% alone): 129
cyclo(glycyl-tyrosine) [Cyclo(Gly-Tyr)]	–	–	–	–	–	Amount of Active GLP-1 (relative amount to control as 100), average value (Table 4, Cyclo(Gly-Tyr) 0.01 μg/mL alone): 65.1
C=C1C[C@@]23CC[C@H]4[C@@](C)(CCC[C@@]4(C)C(=O)O[C@@H]4O[C@H](CO)[C@@H](O)[C@H](O)[C@H]4O)[C@@H]2CC[C@]1(O[C@@H]1O[C@H](CO)[C@@H](O)[C@H](O[C@@H]2O[C@H](CO)[C@@H](O)[C@H](O)[C@H]2O)[C@H]1O[C@@H]1O[C@H](CO)[C@@H](O)[C@H](O)[C@H]1O)C3 [RebA, rebaudioside A]	GLP-1 secretion-accelerating action can be obtained	92.8	129.3	150.9	not accelerated	Amount of Active GLP-1 (relative amount to control as 100), average value [4]: 72.6; Amount of Active GLP-1 (relative amount to control as 100), average value [5]: 72.6
rebaudioside B [RebB]	GLP-1 secretion-accelerating action can be obtained	82.0	70.5	151.2	–	–
